Source: article PMC7041945, “Misfolded proteins bind and activate death receptor 5 to trigger apoptosis during unresolved endoplasmic reticulum stress” (eLife, 2020)

Tests used:
[1] = test system: XBP1 mRNA in HCT116 cells; assay: RT-PCR for Xbp1 mRNA splicing; format: cell-based, Homo sapiens; details: HCT116, 24 hr
Protocol: Cells were grown in 6-well plates and harvested with 0.5 ml of TRIzol reagent (Life Technologies) per manufacturer's protocol to extract RNA. […] The reverse transcription product was diluted to 200 μl with 10 mM Tris-HCl pH 8.2 and used at 1:100 dilution for subsequent RT-PCR reactions. 2 μl of cDNA was added to 0.2 μM of forward and reverse primers ([…]; Hs_XBP1_Rev: [NT]), 0.2 mM of each dNTP, 0.5 units of Taq DNA polymerase (Thermo Scientific). The reaction was set at an annealing temperature of 60.5°C with an extension time of 30 s for 26 cycles.

GFP (340+341) = assay: qPCR of GFP transcript (expression of GFP-tagged construct); format: cell-based; details: Rep 2; for avg. fold induction GFP (340+341) / fold induction GFP (340+341): vs 24 hr cytoGFP (empty traffo)
[2] = test system: CHOP, BiP, and DR5 mRNA in HCT116 cells; assay: qPCR of UPR target transcripts (CHOP, BiP, DR5); format: cell-based, Homo sapiens
Protocol: Cells were grown in 6-well plates and harvested with 0.5 ml of TRIzol reagent (Life Technologies) per manufacturer’s protocol to extract RNA. For cDNA synthesis, 500 ng of total RNA was reverse transcribed with 2 μl of the SuperScript VILO master mix (Life Technologies # 11755050) in a total reaction volume of 10 μl following the manufacturer’s protocol for reaction temperature and duration. The reverse transcription product was diluted to 200 μl with 10 mM Tris-HCl pH 8.2 and used at 1:100 dilution for subsequent RT-PCR reactions.
PCR samples were prepared as described by manufacturer’s protocols from iQ SYBR Green Supermix (BioRad #17088800).
For each experiment, qRT-PCR reactions were set up in triplicate and run using a CFX96 Real Time System (Bio-Rad). Quantitation cycles were determined with CFX Manager 3.0 software (Bio-Rad) and then normalized to GAPDH as an internal control.

[3] = 1000 ng plasmid, sheet Rep 1, mean of 3 replicates
[4] = 3 hr, Rep 2, vs 24 hr cytoGFP (empty traffo), mean of 3 replicates
[5] = 3 hr, Rep 2, vs 24 hr cytoGFP (empty traffo), replicate 1
[6] = 3 hr, Rep 2, vs 24 hr cytoGFP (empty traffo), replicate 2
[7] = 3 hr, Rep 2, vs 24 hr cytoGFP (empty traffo), replicate 3

RHO-GFP: GFP-tagged rhodopsin expressed from plasmid
XBP1 mRNA splicing [1]: induced XBP1 mRNA splicing
2^-(deltaCq) GFP (340+341) (GFP (340+341); 3 hr, replicate 1): 0.5385
Cq GFP (340+341) (GFP (340+341); 3 hr, replicate 1): 20.6309
Cq(sample) - avg Cq(GAPDH), GFP (340+341) (GFP (340+341); 3 hr, replicate 1): 0.893
2^-(deltaCq) GFP (340+341) (GFP (340+341); 3 hr, replicate 2): 0.6201
Cq GFP (340+341) (GFP (340+341); 3 hr, replicate 2): 20.4274
Cq(sample) - avg Cq(GAPDH), GFP (340+341) (GFP (340+341); 3 hr, replicate 2): 0.6895
2^-(deltaCq) GFP (340+341) (GFP (340+341); 3 hr, replicate 3): 0.5059
Cq GFP (340+341) (GFP (340+341); 3 hr, replicate 3): 20.721
Cq(sample) - avg Cq(GAPDH), GFP (340+341) (GFP (340+341); 3 hr, replicate 3): 0.9831
avg. fold induction GFP (340+341) (GFP (340+341); 3 hr, mean of 3 replicates): 0.02018
fold induction GFP (340+341) (GFP (340+341); 3 hr, replicate 1): 0.01959
fold induction GFP (340+341) (GFP (340+341); 3 hr, replicate 2): 0.02256
fold induction GFP (340+341) (GFP (340+341); 3 hr, replicate 3): 0.0184
2^-(deltaCq) GFP (340+341) (GFP (340+341); 7 hr, replicate 1): 2.306
Cq GFP (340+341) (GFP (340+341); 7 hr, replicate 1): 18.4525
Cq(sample) - avg Cq(GAPDH), GFP (340+341) (GFP (340+341); 7 hr, replicate 1): -1.205
2^-(deltaCq) GFP (340+341) (GFP (340+341); 7 hr, replicate 2): 2.483
Cq GFP (340+341) (GFP (340+341); 7 hr, replicate 2): 18.3457
Cq(sample) - avg Cq(GAPDH), GFP (340+341) (GFP (340+341); 7 hr, replicate 2): -1.312
2^-(deltaCq) GFP (340+341) (GFP (340+341); 7 hr, replicate 3): 2.811
Cq GFP (340+341) (GFP (340+341); 7 hr, replicate 3): 18.1671
Cq(sample) - avg Cq(GAPDH), GFP (340+341) (GFP (340+341); 7 hr, replicate 3): -1.4909
avg. fold induction GFP (340+341) (GFP (340+341); 7 hr, mean of 3 replicates): 0.09215
fold induction GFP (340+341) (GFP (340+341); 7 hr, replicate 1): 0.08389
fold induction GFP (340+341) (GFP (340+341); 7 hr, replicate 2): 0.09033
fold induction GFP (340+341) (GFP (340+341); 7 hr, replicate 3): 0.1022
avg. 2^-(deltaCq) GFP (340+341) (GFP (340+341); 24 hr, mean of 3 replicates): 71.8905
2^-(deltaCq) GFP (340+341) (GFP (340+341); 24 hr, replicate 1): 62.5314
Cq GFP (340+341) (GFP (340+341); 24 hr, replicate 1): 13.0515
Cq(sample) - avg Cq(GAPDH), GFP (340+341) (GFP (340+341); 24 hr, replicate 1): -5.967
2^-(deltaCq) GFP (340+341) (GFP (340+341); 24 hr, replicate 2): 61.8163
Cq GFP (340+341) (GFP (340+341); 24 hr, replicate 2): 13.0681
Cq(sample) - avg Cq(GAPDH), GFP (340+341) (GFP (340+341); 24 hr, replicate 2): -5.95
2^-(deltaCq) GFP (340+341) (GFP (340+341); 24 hr, replicate 3): 91.3236
Cq GFP (340+341) (GFP (340+341); 24 hr, replicate 3): 12.5051
Cq(sample) - avg Cq(GAPDH), GFP (340+341) (GFP (340+341); 24 hr, replicate 3): -6.513
avg. fold induction GFP (340+341) (GFP (340+341); 24 hr, mean of 3 replicates): 2.615
fold induction GFP (340+341) (GFP (340+341); 24 hr, replicate 1): 2.275
fold induction GFP (340+341) (GFP (340+341); 24 hr, replicate 2): 2.2486
fold induction GFP (340+341) (GFP (340+341); 24 hr, replicate 3): 3.322
2^-(deltaCq) for GFP norm to GAPDH, avg ([2]; 1000 ng plasmid, sheet Rep 1, mean): 55.6234
BiP avg fold induction relative to empty traffo [2, 3]: 1.525
CHOP avg fold induction relative to empty traffo [2, 3]: 2.086
DR5 total avg fold induction relative to empty traffo [2, 3]: 1.336
GAPDH avg fold induction relative to empty traffo [2, 3]: 1.003
2^-(deltaCq) CHOP ([2]; 3 hr, Rep 2, replicate 1): 0.04356
2^-(deltaCq) DR5 total ([2]; 3 hr, Rep 2, replicate 1): 0.02287
Cq CHOP ([2]; 3 hr, Rep 2, replicate 1): 24.2586
Cq DR5 total ([2]; 3 hr, Rep 2, replicate 1): 25.1882
Cq(sample) - avg Cq(GAPDH), CHOP ([2]; 3 hr, Rep 2, replicate 1): 4.521
Cq(sample) - avg Cq(GAPDH), DR5 total ([2]; 3 hr, Rep 2, replicate 1): 5.45
2^-(deltaCq) CHOP ([2]; 3 hr, Rep 2, replicate 2): 0.03694
2^-(deltaCq) DR5 total ([2]; 3 hr, Rep 2, replicate 2): 0.02336
Cq CHOP ([2]; 3 hr, Rep 2, replicate 2): 24.4965
Cq DR5 total ([2]; 3 hr, Rep 2, replicate 2): 25.1574
Cq(sample) - avg Cq(GAPDH), CHOP ([2]; 3 hr, Rep 2, replicate 2): 4.759
Cq(sample) - avg Cq(GAPDH), DR5 total ([2]; 3 hr, Rep 2, replicate 2): 5.42
2^-(deltaCq) CHOP ([2]; 3 hr, Rep 2, replicate 3): 0.03617
2^-(deltaCq) DR5 total ([2]; 3 hr, Rep 2, replicate 3): 0.01987
Cq CHOP ([2]; 3 hr, Rep 2, replicate 3): 24.5271
Cq DR5 total ([2]; 3 hr, Rep 2, replicate 3): 25.391
Cq(sample) - avg Cq(GAPDH), CHOP ([2]; 3 hr, Rep 2, replicate 3): 4.789
Cq(sample) - avg Cq(GAPDH), DR5 total ([2]; 3 hr, Rep 2, replicate 3): 5.653
avg. fold induction CHOP [2, 4]: 1.784
avg. fold induction DR5 total [2, 4]: 0.7693
fold induction CHOP [2, 5]: 1.9981
fold induction DR5 total [2, 5]: 0.7985
fold induction CHOP [2, 6]: 1.694
fold induction DR5 total [2, 6]: 0.8157
fold induction CHOP [2, 7]: 1.659
fold induction DR5 total [2, 7]: 0.6938
2^-(deltaCq) CHOP ([2]; 7 hr, Rep 2, replicate 1): 0.1012
2^-(deltaCq) DR5 total ([2]; 7 hr, Rep 2, replicate 1): 0.0421
Cq CHOP ([2]; 7 hr, Rep 2, replicate 1): 22.9621
Cq DR5 total ([2]; 7 hr, Rep 2, replicate 1): 24.2279
Cq(sample) - avg Cq(GAPDH), CHOP ([2]; 7 hr, Rep 2, replicate 1): 3.304
Cq(sample) - avg Cq(GAPDH), DR5 total ([2]; 7 hr, Rep 2, replicate 1): 4.57
